# Measurements reported in US5698529A, “Chemotherapeutic compositions” (Supratek Pharma, Inc., priority 1996, dated 1997).
# Where two headings read alike, the source gives them in different places.
# Legend:
# CRL157 cells = assay: Cytotoxicity to CRL157 cells after incubation of preparations in the dark at 37° C.; format: cell-based; conditions: Homo sapiens
# Procedure: (§1) B. Human ovarian carcinoma cells (CRL157) are precultured in 1% solution of the same block copolymer but without daunorubicin in RPMI 1640 medium supplemented with 10% calf fetal serum. The preparation of part A is added and the mixture is incubated for 60 minutes at 37° C. and the cells then washed three times with RPMI 1640 and cultured in RPMI 1640 supplemented with 10% calf fetal serum for 3 days {Prep. A}. Cytotoxicity is measured, both for this preparation and a parallel preparation of free daunorubicin {Prep. B}, using the method of Alley et al., Cancer Res., 48, 589-601 (1988). The results are as follows:
# Micellar daunorubicin obtained as described in Example 3 {Prep. A} and free daunorubicin {Prep. B} are incubated in the dark at 37° C. and cytotoxicity to CRL157 cells in then determined in the manner discussed in Part B of Example 1.
# SKVO3 cells [1] = assay: Cytotoxic activity of plasma of inoculated mice on SKVO3 cells; format: cell-based, human
# Procedure: (§2) Anti-neoplastic activity is determined by evaluation of the cytotoxic activity of plasma of mammals inoculated with the test composition (see de Valeriola et el., Cancer Chemother. Pharmacol. 29, 133-140, 1991).
# (§3) Groups (6 animals/group) of C57B1/6 7-week-old female mice are inoculated i.v. (via the tail vein) with free or micellar (N=1.3) daunorubicin obtained as described in Example 3 {Prep. B and Prep. A, respectively}. Drug concentrations (MTD) are adjusted so that a maximum volume of 0.1 mL is injected in each mouse. The experiment is repeated twice.
# (§4) To obtain plasma samples, blood (10 μl) is collected from the tail artery one hour after drug administration, diluted 1:10 with sterile RPMI 1640 medium, and centrifuged at 400 g for 15 minutes. […] The cells are incubated for two hours at 37° C. and 5% CO2, and then washed three times with RPMI 1640. The pretreated cells are incubated in RPMI 1640 supplemented with 10% fetal calf serum at 37° C. and 5% CO2 for three days, after which cytotoxicity is determined as described in Example 1.
# (§5) The procedure of Example 16 is repeated utilizing SKVLB and SRVO3 cells.
# [2] = test system: normal human mononuclear cells; assay: IC50 at intervals of drug contact, normal mononuclear cells, Example 5; format: cell-based
# Procedure: (§6) Measurements are made at the indicated intervals of the drug contact with the cells from 15 minutes to 12 hours.
# SKVLB cells = assay: Cytotoxic activity of plasma of inoculated mice on SKVLB cells; format: cell-based, human
# Procedure: as §2, §3, §4, §5
# [3] = test system: human T-lymphoma (Jurkat) cells; assay: Cytotoxicity in human T-lymphoma (Jurkat) cells, Example 4; format: cell-based
# Procedure: as §1
# A. A 1:1.5 mixture of block copolymers of poly(oxyethylene)-poly(oxypropylene) (pluronics P-85 and L-64) having individual ratios (n) of (oxypropylene) to (oxyethylene) blocks of 1.00 and 1.50, respectively, and a combined value (N) of 1.30, is diluted with RPMI 1640 medium to a final concentration of 2.0% at 4° C. The mixture is incubated for 30 minutes at 37° C. and then sterilely filtered through a 0.22 μm filter. An equal volume of a solution of 200 μg daunorubicin in RPMI 1640 medium is added and this mixture is incubated for 30 minutes at 37° C.
# Daunorubicin in the composition of Example 3 is evaluated for cytotoxicity in (i) human T-lymphoma (Jurkat) cells as described in Example 1 and (ii) normal human mononuclear cells.
# [4] = test system: human T-lymphoma (Jurkat) cells; assay: IC50 at intervals of drug contact, Jurkat cells, Example 5; format: cell-based
# Procedure: as §6
# SKVO3 cells [5] = assay: cells; format: cell-based; conditions: Homo sapiens; SKVO3, drug-sensitive; read-out: IC50
# Description: The antineoplastic agent vinblastine is incorporated into the block copolymer mixture described in Example 3.
# The antineoplastic agent mitomycin C is incorporated into the block copolymer mixture described in Example 3.
# The antineoplastic agent methotrexate is incorporated into the block copolymer mixture described in Example 3.
# The antineoplastic agent daunorubicin is incorporated into the block copolymer mixture described in Example 3.
# MTD in mice = conditions: mouse, in vivo, ip, C57B1/6 female mice, 14 days
# Description: B and Prep. A, respectively}, and are observed for 14 days.
# The MTD is defined as a dose which leads to no daunorubicin-deaths (any higher dose leads to the daunorubicin-related death of at least 1 animal per group). The experiment is repeated twice. The results are reproducible with less that 10% variation.
# [6] = test system: human small cell carcinoma of lung (H-69); assay: Cytotoxicity to human small cell carcinoma of lung (H-69), Example 1; format: cell-based
# Procedure: A. A block copolymer of poly(oxyethylene)-poly(oxypropylene) in which N=0.25 (Pluronic F-68) is diluted with RPMI 1640 medium to a final concentration of 2.0% at 4° C. The mixture is incubated for 30 minutes at 37° C. and then sterilely filtered through a 0.22 μm filter. An equal volume of a solution of 200 μg daunorubicin in RPMI 1640 medium is added and this mixture is incubated for 30 minutes at 37° C.
# as §1
# Following the same procedure, cytotoxicity is determined against human small cell carcinoma of lung (H-69): […]
# MCF-7AU = assay: Cytotoxicity against daunorubicin/verapamil-resistant MCF-7AU not expressing P-170; format: cell-based, human
# Description: The daunorubicin composition of Example 3 {Prep. […] B}.
# [7] = plasma dilution 1:20, 10 mg/kg daunorubicin
# [8] = plasma dilution 1:20, MTD of daunorubicin
# [9] = plasma dilution 1:200, 10 mg/kg daunorubicin
# [10] = plasma dilution 1:200, MTD of daunorubicin
# [11] = plasma dilution 1:2000, 10 mg/kg daunorubicin
# [12] = plasma dilution 1:2000, MTD of daunorubicin
structure (smiles),measurement,setting,value
"COc1cccc2c1C(=O)c1c(O)c3c(c(O)c1C2=O)C[C@@](O)(C(C)=O)C[C@@H]3O[C@H]1C[C@H](N)[C@H](O)[C@H](C)O1 [Prep. B, daunorubicin]",IC50,CRL157 cells; 2 h,0.4 µg/mL
same,IC50,CRL157 cells; 4 h,0.475 µg/mL
same,IC50,CRL157 cells; 12 h,1.12 µg/mL
same,IC50,CRL157 cells; 24 h,6.3 µg/mL
same,IC50,CRL157 cells; 48 h,10.2 µg/mL
same,IC50,CRL157 cells; 96 h,48.9 µg/mL
same,"Inhibition, %",SKVO3 cells [1]; [7],22%
same,"Inhibition, %",SKVO3 cells [1]; [8],9%
same,"Inhibition, %",SKVO3 cells [1]; [9],6%
same,"Inhibition, %",SKVO3 cells [1]; [10],0%
same,"Inhibition, %",SKVO3 cells [1]; [11],0%
same,"Inhibition, %",SKVO3 cells [1]; [12],0%
same,IC50,[2]; 0.25 h,4.9 µg/mL
same,IC50,[2]; 0.5 h,0.98 µg/mL
same,IC50,[2]; 0.75 h,0.405 µg/mL
same,IC50,[2]; 1 h,0.31 µg/mL
same,IC50,[2]; 2 h,0.29 µg/mL
same,IC50,[2]; 4 h,0.275 µg/mL
same,IC50,[2]; 8 h,0.28 µg/mL
same,IC50,[2]; 12 h,0.24 µg/mL
same,"Inhibition, %",SKVLB cells; [7],8%
same,"Inhibition, %",SKVLB cells; [8],0%
same,"Inhibition, %",SKVLB cells; [9],0%
same,"Inhibition, %",SKVLB cells; [10],0%
same,"Inhibition, %",SKVLB cells; [11],0%
same,"Inhibition, %",SKVLB cells; [12],0%
same,inhibition at 0.0032 µg/mL,[3],21%
same,inhibition at 0.016 µg/mL,[3],36%
same,inhibition at 0.08 µg/mL,[3],59%
same,inhibition at 0.4 µg/mL,[3],83%
same,inhibition at 2 µg/mL,[3],100%
same,inhibition at 10 µg/mL,[3],100%
same,inhibition at 50 µg/mL,[3],100%
same,IC50,[4]; 0.25 h,0.12 µg/mL
same,IC50,"[4]; 0.5 h, drug contact 0.50 hours, read-out: IC50",0.068 µg/mL
same,IC50,[4]; 0.75 h,0.035 µg/mL
same,IC50,[4]; 1 h,0.025 µg/mL
same,IC50,[4]; 2 h,0.019 µg/mL
same,IC50,[4]; 4 h,0.016 µg/mL
same,IC50,[4]; 8 h,0.003 µg/mL
same,IC50,[4]; 12 h,0.0052 µg/mL
same,IC50,SKVO3 cells [5],0.62 µg/mL
same,MTD at 336 h,MTD in mice,2 mg/kg
same,inhibition at 0.0032 µg/mL,[6],20%
same,inhibition at 0.016 µg/mL,[6],42%
same,inhibition at 0.08 µg/mL,[6],69%
same,inhibition at 0.4 µg/mL,[6],91%
same,inhibition at 2 µg/mL,[6],100%
same,inhibition at 10 µg/mL,[6],100%
same,inhibition at 50 µg/mL,[6],100%
same,inhibition at 0.016 µg/mL,MCF-7AU; Homo sapiens,3%
same,inhibition at 0.08 µg/mL,MCF-7AU; Homo sapiens,9%
same,inhibition at 0.4 µg/mL,MCF-7AU; Homo sapiens,37%
same,inhibition at 2 µg/mL,MCF-7AU; Homo sapiens,65%
same,inhibition at 10 µg/mL,MCF-7AU; Homo sapiens,89%
same,inhibition at 50 µg/mL,MCF-7AU; Homo sapiens,100%
same,IC50 (in words),"MCF-7AU; resistant line MCF-7AU, statement for both resistant lines",higher IC50 's (is less toxic)
